Target: RBP4 (Homo sapiens, UniProt P02753)
Settings: read-out: RBP4 – SPA IC50

Cc1cc(-c2nnn[nH]2)nc(N2C[C@H]3C[C@@H](c4ccccc4C(F)(F)F)C[C@H]3C2)n1 [BPN-15585]
IC50: 7.5 nM

O=C(c1nc2ncccn2n1)N1C[C@H]2C[C@@H](c3ccccc3OC(F)(F)F)C[C@H]2C1 [compound 93]
IC50: 41 nM
